Laboratory results as given in US9079888B2, “Compounds as histamine H3 receptor ligands” (Suven Life Sciences Limited, priority 2011, dated 2015).
Structures can show the parent of a compound that is named as a salt. Each block holds one compound with its values, some of them ahead of it.

Legend:
[1] = target: Human or Rat Histamine H3 Receptor; assay: Binding assay for human or rat Histamine H3 receptor ([3H] R-α-methylhistamine displacement); details: radioligand [3H] R-α-methylhistamine 3.0 nM; receptor source rat brain frontal cortex or recombinant human cDNA in CHO cells (table does not say which)
Experimental: The reaction was terminated by rapid vacuum filtration onto the glass fiber filters. Radioactivity trapped onto the filters was determined and compared to the control values in order to ascertain any interactions of the test compound(s) with either cloned human or rat receptor binding site.

[2] = Rodent Pharmacokinetic Study
Experimental: Male Wistar rats (230-280 grams) obtained from NIN (National Institute of Nutrition, Hyderabad, India) were used as an experimental animal. Three animals were housed in each cage. Animals were kept fasted over night and maintained on a 12 hours light/dark cycle. Three rats were dosed New chemical entity (NCE) orally (3 or 10 mg/kg) and intravenously (1 or 5 mg/kg) on day 0 and day 2.
At each time point blood was collected by jugular vein. Blood was stored at 2-8° C. until analysis. The concentrations of the NCE compound in blood were determined using LC-MS/MS method. Schedule time points: Pre dose 0.08, 0.25, 0.5, 1, 2, 4, 6, 8 and 24 hours after dosing (n=3). The NCE compounds were quantified in blood by partially validated LC-MS/MS method using acetonitrile precipitation technique. […] Study samples were analyzed using calibration samples in the batch and quality control samples spread across the batch.
Pharmacokinetic parameters were calculated by non-compartmental model using software WinNonlin version 5.0.1.

Male Wister rats = assay: Object Recognition Task Model; assay type: in vivo; details: rat; for Exploration time mean ± S.E.M, Familiar object / Exploration time mean ± S.E.M, Novel object: choice trial T2 24 h after T1
Experimental: The cognition enhancing properties of compounds of this invention were estimated by using this model.
Male Wister rats (230-280 grams) obtained from N. I. N. (National Institute of Nutrition, Hyderabad, India) was used as experimental animals. Four animals were housed in each cage. Animals were kept on 20% food deprivation before one day and given water ad libitum throughout the experiment and maintained on a 12 hours light/dark cycle. Also the rats were habituated to individual arenas for 1 hour in the absence of any objects.
One group of 12 rats received vehicle (1 mL/Kg) orally and another set of animals received compound of the formula (I) either orally or i.p., before one hour of the familiar (T1) and choice trial (T2).
The experiment was carried out in a 50×50×50 cm open field made up of acrylic. In the familiarization phase, (T1), the rats were placed individually in the open field for 3 minutes, in which two identical objects (plastic bottles, 12.5 cm height×5.5 cm diameter) covered in yellow masking tape alone (a1 and a2) were positioned in two adjacent corners, 10 cms from the walls. After 24 hours of the (T1) trial for long-term memory test, the same rats were placed in the same arena as they were placed in T1 trial. Choice phase (T2) rats were allowed to explore the open field for 3 minutes in presence of one familiar object (a3) and one novel object (b) (Amber color glass bottle, 12 cm high and 5 cm in diameter). Familiar objects presented similar textures, colors and sizes. During the T1 and T2 trial, explorations of each object (defined as sniffing, licking, chewing or having moving vibrissae whilst directing the nose towards the object at a distance of less than 1 cm) were recorded separately by stopwatch. Sitting on an object was not regarded as exploratory activity, however, it was rarely observed.
T1 is the total time spent exploring the familiar objects (a1+a2).
T2 is the total time spent exploring the familiar object and novel object (a3+b).
The object recognition test was performed as described by Ennaceur, A., Delacour, J., 1988, A new one-trial test for neurobiological studies of memory in rats—Behavioural data, Behay. Brain Res., 31, 47-59.

[3] = Rodent Brain Penetration Study; assay type: in vivo, Male Wister rats; details: brain / whole blood; Wistar/Male rat, Per Oral, 3 mg/kg, vehicle water; read-out: Brain Penetration Ratio (Cbrain/Cblood)
Experimental: Three animals were housed in each cage. Animals were given water and food ad libitum throughout the experiment, and maintained on a 12 hours light/dark cycle.
New chemical entity (NCE) was dissolved in suitable vehicle and administered orally (3 or 10 mg/kg). […] Blood and brain tissue were collected and brain was homogenized to yield 20% w/v. Blood was stored at 2-8° C. and brain homogenate was frozen at −20° C. until analysis. The concentrations of NCE in blood and brain were quantified using LC-MS/MS method.
Extents of brain-blood ratio were calculated (Cbrian/Cblood)

rats = assay: Inhibition of Food Intake; assay type: in vivo; details: rats fasted 18 hours, oral treatment 60 minutes before feed, active dose
Experimental: The anti-obesity properties of compounds of this invention were estimated using this model.
The experiment consisted of 6 days. The rats were adapted to the 18 hours fasting and 6 hours feeding pattern. The animals were housed in a group of three in the cages provided with the fasting grills and was fasted for 18 hours. After 18 hours fasting the rats were separated and placed individually in the cage. Weighed amount of feed was provided to rats for 6 hours and the feed intake at 1 hour, 2 hours, 4 hours and 6 hours was measured.
Again the rats were regrouped and fasted for 18 hours. The above procedure was followed for 5 days. The average cumulative food intake by the rats on the last 3 days was calculated. Animals were randomized on the basis of their previous three days food intake. On the day of experiment the rats were orally treated test compounds or vehicle. After 60 minutes, the feed was provided to the rats and the food intake at 1 hour, 2 hours, 4 hours and 6 hours was measured. The food intake by the rats treated with test compound was compared with the vehicle treated group by using Unpaired Student's t test.

[4] = Wistar/Male rat, Intravenous, 1 mg/kg, vehicle water, blood
[5] = Wistar/Male rat, Per Oral, 3 mg/kg, vehicle water, blood
[6] = Wistar/Male rat, per oral 3 mg/kg vs intravenous 1 mg/kg
[7] = male, Wistar, rat, whole blood, iv, 1 mg/kg
[8] = male, Wistar, rat, whole blood, po, 3 mg/kg
[9] = male, Wistar, rat, whole blood, po, 10 mg/kg

- Ki [1]: 3.8 nM
Compound: O=C(CN1CCCC1)Nc1ccc(OC2CCN(C3CCCC3)CC2)cc1 [Example 28, N-[4-(1-Cyclopentylpiperidin-4-yloxy)phenyl]-2-(pyrrolidin-1-yl) acetamide dihydrochloride]

- Ki [1]: 6.7 nM
Compound: O=C(CCN1CCOCC1)Nc1ccc(OC2CCN(C3CCC3)CC2)cc1 [Example 26, N-[4-(1-Cyclobutylpiperidin-4-yloxy)phenyl]-3-(morpholin-4-yl) propionamide]

- AUC(0-t) [2, 7]: 68 ± 2 ng·h/mL
- half-life [2, 7]: 3.3 ± 0.42 h
- AUC(0-t) [2, 8]: 64 ± 16 ng·h/mL
- Cmax [2, 8]: 27 ± 11 ng/mL
- Tmax [2, 8]: 0.5 h
- bioavailability [2, 8]: 32 ± 8%
- half-life [2, 8]: 3.59 ± 0.43 h
- Ki [1]: 9.73 nM
- Kp [3]: 1.24 ± 0.18
Compound: CC(=O)N(CCN1CCOCC1)c1ccc(OC2CCN(C3CCC3)CC2)cc1F [Example 37, N-[4-(1-Cyclobutylpiperidin-4-yloxy)-2-fluorophenyl]-N-[2-(morpholin-4-yl)-ethyl] acetamide]
- Inference (Male Wister rats; 3 mg/kg p.o.): Active
- Exploration time mean ± S.E.M, Familiar object (Male Wister rats; 3 mg/kg p.o.): 5.53 ± 1.67 s
- Exploration time mean ± S.E.M, Novel object (Male Wister rats; 3 mg/kg p.o.): 14.18 ± 2.04 s

- Ki [1]: 5.39 nM
Compound: CC(=O)N1CCN(CC(=O)Nc2ccc(OC3CCN(C4CCC4)CC3)cc2)CC1 [Example 39, N-[4-(1-Cyclobutylpiperidin-4-yloxy)phenyl]-2-(1-acetylpiperazin-4-yl) acetamide]

- Ki [1]: 4.1 nM
Compound: O=C(CN1CCCCC1)Nc1ccc(OC2CCN(C3CCCC3)CC2)cc1 [Example 27, N-[4-(1-Cyclopentylpiperidin-4-yloxy)phenyl]-2-(piperidin-1-yl) acetamide dihydrochloride]

- Ki [1]: 4.05 nM
Compound: O=C(CN1CCOC(CO)C1)Nc1ccc(OC2CCN(C3CCC3)CC2)cc1 (stereo not drawn) [Example 25, N-[4-(1-Cyclobutylpiperidin-4-yloxy)phenyl]-2-(2-hydroxymethylmorpholin-4-yl) acetamide]

- Ki [1]: 1.6 nM
Compound: O=C(CN1CCCCC1)Nc1ccc(OC2CCN(C3CCC3)CC2)cc1 [Example 29, N-[4-(1-Cyclobutylpiperidin-4-yloxy)phenyl]-2-(piperidin-1-yl) acetamide]

- Ki [1]: 6.6 nM
Compound: CC(=O)N(CCN1CCOCC1)c1ccc(OC2CCN(C3CC3)CC2)cc1 [Example 38, N-[4-(1-Cyclopropylpiperidin-4-yloxy)phenyl]-N-[2-(morpholin-4-yl)ethyl] acetamide L(+) tartarate]

Continued, compound first:

Compound: O=C(CN1CCOCC1)Nc1ccc(OC2CCN(C3CC3)CC2)cc1 [Example 23, N-[4-(1-Cyclopropylpiperidin-4-yloxy)phenyl]-2-(morpholin-4-yl) acetamide]
- AUCt [2, 4]: 338 ± 29 ng·h/mL
- T1/2 [2, 4]: 1.13 ± 0.02 h
- AUCt [2, 5]: 556 ± 111 ng·h/mL
- Cmax [2, 5]: 389 ± 29 ng/mL
- T1/2 [2, 5]: 1.23 ± 0.53 h
- Tmax [2, 5]: 0.50 ± 0.00 h
- bioavailability [2, 6]: 55 ± 10%

Compound: O=C(CNc1ccc(OC2CCN(C3CCC3)CC2)cc1)N1CCOCC1 [Example 2, 2-[4-(1-Cyclobutylpiperidin-4-yloxy)phenylamino]-1-(morpholin-4-yl)ethanone hydrochloride]
- Ki [1]: 6.4 nM

Compound: CC(C)N1CCC(Oc2ccc(NC(=O)CN3CCOCC3)cc2)CC1 [Example 22, N-[4-(1-Isopropylpiperidin-4-yloxy)-phenyl]-2-(morpholin-4-yl) acetamide]
- AUCt [2, 4]: 340 ± 60 ng·h/mL
- AUCt [2, 5]: 850 ± 61 ng·h/mL
- Tmax [2, 5]: 0.42 ± 0.14 h
- bioavailability [2, 6]: 85 ± 12%
- Cmax [2, 8]: 376 ± 27 ng/mL
- Ki [1]: 8.3 nM
- Inhibition of food intake (rats): 60 mg/kg, p.o.
- Inference (Male Wister rats; 1 mg/kg p.o.): Active
- Exploration time mean ± S.E.M, Familiar object (Male Wister rats; 1 mg/kg p.o.): 7.12 ± 1.51 s
- Exploration time mean ± S.E.M, Novel object (Male Wister rats; 1 mg/kg p.o.): 16.50 ± 2.37 s

Compound: Cc1cc(OC2CCN(C3CCC3)CC2)ccc1NC(=O)CN1CCC[C@H]1C [Example 16, N-[4-(1-Cyclobutylpiperidin-4-yloxy)-2-methylphenyl]-2-(R-2-methylpyrrolidin-1-yl) acetamide]
- Ki [1]: 2.4 nM
- Inhibition of food intake (rats): ≧30 mg/kg, p.o.

Compound: Cc1cc(OC2CCN(C3CCCC3)CC2)ccc1NC(=O)CN1CCC[C@H]1C [Example 15, N-[4-(1-Cyclopentylpiperidin-4-yloxy)-2-methylphenyl]-2-(R-2-methylpyrrolidin-1-yl) acetamide]
- Ki [1]: 4 nM

Compound: Cc1cc(OC2CCN(C3CCC3)CC2)ccc1NC(=O)CN1CCCCC1 [Example 13, N-[4-(1-Cyclobutylpiperidin-4-yloxy)-2-methylphenyl]-2-(piperidin-1-yl) acetamide]
- Ki [1]: 3.3 nM
- Inhibition of food intake (rats): 30 mg/kg, p.o.

Compound: O=C(CN1CCCCC1)Nc1ccc(OC2CCN(C3CCC3)CC2)cc1C(F)(F)F [Example 7, N-[4-(1-Cyclobutylpiperidin-4-yloxy)-2-trifluoromethylphenyl]-2-(piperidin-1-yl) acetamide]
- Ki [1]: 14.8 nM

Compound: CC(C)N1CCCN(CC(=O)Nc2ccc(OC3CCN(C4CCC4)CC3)cc2)CC1 [Example 24, N-[4-(1-Cyclobutylpiperidin-4-yloxy)phenyl]-2-(4-isopropyl[1,4]diazepan-1-yl) acetamide]
- Ki [1]: 1 nM

Compound: O=C(CN1CCCC1)Nc1ccc(OC2CCN(C3CCC3)CC2)cc1 [Example 21, N-[4-(1-Cyclobutylpiperidin-4-yloxy)-phenyl]-2-(pyrrolidin-1-yl) acetamide]
- Ki [1]: 1.1 nM
- Inhibition of food intake (rats): ≧30 mg/kg, p.o.

Compound: O=C(CN1CCC(O)CC1)Nc1ccc(OC2CCN(C3CCC3)CC2)cc1 [Example 19, N-[4-(1-Cyclobutylpiperidin-4-yloxy)phenyl]-2-(4-hydroxypiperidin-1-yl) acetamide]
- AUC(0-t) [2, 7]: 347 ± 44 ng·h/mL
- half-life [2, 7]: 17 ± 4.5 h
- AUC(0-t) [2, 8]: 838 ± 96 ng·h/mL
- Cmax [2, 8]: 67 ± 11 ng/mL
- Tmax [2, 8]: 2.67 ± 1.15 h
- bioavailability [2, 8]: 81 ± 12%
- half-life [2, 8]: 12.8 ± 2.48 h
- Ki [1]: 6.4 nM

Compound: Cc1cc(OC2CCN(C3CCCC3)CC2)ccc1NC(=O)CN1CCCCC1 [Example 12, N-[4-(1-Cyclopentylpiperidin-4-yloxy)-2-methylphenyl]-2-(piperidin-1-yl) acetamide]
- Ki [1]: 7.5 nM

Compound: Cc1cc(OC2CCN(C(C)C)CC2)ccc1NC(=O)CN1CCCC1 [Example 10, N-[4-(1-Isopropyl-piperidin-4-yloxy)-2-methylphenyl]-2-(pyrrolidin-1-yl) acetamide]
- Ki [1]: 8.4 nM

Compound: Cc1cc(OC2CCN(C3CCC3)CC2)ccc1NC(=O)CN1CCCC1 [Example 11, N-[4-(1-Cyclobutylpiperidin-4-yloxy)-2-methylphenyl]-2-(pyrrolidin-1-yl) acetamide]
- AUC(0-t) ([2]; male, Wistar, rat, whole blood, iv, 5 mg/kg): 3340 ± 656 ng·h/mL
- AUC(0-t) [2, 9]: 1350 ± 569 ng·h/mL
- Cmax [2, 9]: 122 ± 55 ng/mL
- Tmax [2, 9]: 4 ± 1.76 h
- bioavailability [2, 9]: 20 ± 9%
- Ki [1]: 1.9 nM

Compound: CN(C(=O)CN1CCOCC1)c1ccc(OC2CCN(C3CCC3)CC2)cc1 [Example 14, N-[4-(1-Cyclobutylpiperidin-4-yloxy)phenyl]-N-methyl-2-(morpholin-4-yl) acetamide]
- Ki [1]: 4.9 nM
